Reference: patent publication US20080015222A1, “New Heterocyclic Amides” (ASTRAZENECA AB, priority 2004, published 2008)

Molecular target: T1, hVR1 (Homo sapiens, UniProt Q8NER1)
T1 construct: expressed in transfected cells
Test: hVR1 FLIPR (Fluorometric Image Plate Reader) screening assay, IC50 determination
Format: cell-based
Settings: CHO cells stably expressing hVR1
Description: 1. hVR1FLIPR (Fluorometric Image Plate Reader) Screening Assay
Transfected CHO cells, stably expessing hVR1 (15,000 cells/well) are seeded in 50 ul media in a black clear bottom 384 plate (Greiner) and grown in a humidified incubator (37° C., 2% CO2), 24-30 hours prior to experiment.
Subsequently, the media is removed from the cell plate by inversion and 2 μM Fluo-4 is added using a multidrop (Labsystems). Following the 40 minutes dye incubation in the dark at 37° C. and 2% CO2, the extracellular dye present is washed away using an EMBLA (Scatron), leaving the cells in 40 ul of assay buffer (1×HBSS, 10 mM D-Glucose, 1 mM CaCl2, 10 mM HEPES, 10×7.5% NaHCO3 and 2.5 mM Probenecid).
FLIPR Assay—IC50 Determination Protocol
For IC50 determinations the fluorescence is read using FLIPR filter 1 (em […]). A cellular baseline recording is taken for 30 seconds, followed by a 20 μl addition of 10, titrated half-log concentrations of the test compound, yielding cellular concentration ranging from 3 μM to 0.1 nM. Data is collected every 2 seconds for a further 5 minutes prior to the addition of a VR1 agonist solution: either 50 nM solution of capsaicin or MES (2-[N-morpholino]ethanesulfonic acid) buffer (pH 5.2), by the FLIPR pipettor. The FLIPR continues to collect data for a further 4 minutes. Compounds having antagonistic properties against the hVR1 will inhibit the increase in intracellular calcium in response to the capsaicin addition. This consequently leading to a reduction in fluorescence signal and providing a reduced fluorescence reading, compared with no compound, buffer controls. Data is exported by the FLIPR program as a sum of fluorescence calculated under the curve upon the addition of capsaicin. Maximum inhibition, Hill slope and IC50 data for each compound are generated.

[1] = agonist low pH (MES buffer pH 5.2)

T1 sequence (Q8NER1 whole entry): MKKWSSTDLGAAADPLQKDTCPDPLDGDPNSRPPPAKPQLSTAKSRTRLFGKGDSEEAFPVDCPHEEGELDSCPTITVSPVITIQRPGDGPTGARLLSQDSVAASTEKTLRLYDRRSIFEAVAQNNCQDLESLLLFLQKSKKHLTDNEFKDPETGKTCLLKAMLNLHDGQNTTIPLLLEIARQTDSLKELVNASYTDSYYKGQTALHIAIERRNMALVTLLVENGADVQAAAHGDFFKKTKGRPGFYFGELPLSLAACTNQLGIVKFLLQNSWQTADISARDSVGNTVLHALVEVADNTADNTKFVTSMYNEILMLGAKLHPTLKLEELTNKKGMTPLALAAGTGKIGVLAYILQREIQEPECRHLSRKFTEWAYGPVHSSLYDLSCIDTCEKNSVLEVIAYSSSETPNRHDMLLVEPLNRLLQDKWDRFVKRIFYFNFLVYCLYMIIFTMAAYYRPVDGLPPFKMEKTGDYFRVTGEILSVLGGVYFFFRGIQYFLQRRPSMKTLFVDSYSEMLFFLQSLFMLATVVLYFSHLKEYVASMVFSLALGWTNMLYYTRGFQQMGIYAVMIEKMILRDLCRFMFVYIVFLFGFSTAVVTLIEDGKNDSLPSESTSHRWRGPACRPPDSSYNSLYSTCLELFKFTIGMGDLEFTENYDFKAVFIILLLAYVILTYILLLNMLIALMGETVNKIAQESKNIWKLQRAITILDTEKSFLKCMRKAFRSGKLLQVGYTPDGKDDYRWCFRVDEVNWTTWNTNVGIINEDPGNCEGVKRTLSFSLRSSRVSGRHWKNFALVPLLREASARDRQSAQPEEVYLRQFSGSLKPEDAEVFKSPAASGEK

| SMILES | IC50 (agonist capsaicin (50 nM)) | IC50 [1] |
| --- | --- | --- |
| COc1cc(NC(=O)Cn2cnc3cccc(C(C)=O)c32)cc(OC)c1 [Example 35, 2-(7-Acetyl-1H-benzimidazol-1-yl)-N-(3,5-dimethoxyphenyl)acetamide] | 518 nM | 508 nM |
| O=C(Cn1cnc2cccc([N+](=O)[O-])c21)Nc1cc(F)c(F)c(F)c1 [Example 14, 2-(7-Nitro-1H-benzimidazol-1-yl)-N-(3,4,5-trifluorophenyl)acetamide] | 48 nM | 108 nM |
| COc1cc(NC(=O)Cn2cnc3cccc(C(C)=O)c32)cc(C(F)(F)F)c1 [Example 32, 2-(7-Acetyl-1H-benzimidazol-1-yl)-N-[3-methoxy-5-(trifluoromethyl)phenyl]acetamide] | 77 nM | 53 nM |
| COCCOc1cc(NC(=O)Cn2cnc3cccc([N+](=O)[O-])c32)cc(OC)c1 [Example 10, N-[3-Methoxy-5-(2-methoxyethoxy)phenyl]-2-(7-nitro-1H-benzimidazol-1-yl)acetamide] | 22 nM | 45 nM |
